Data set [1] is described as follows: Comparison of activity with compounds of analogous structure. Conditions: comparison with the compounds of the invention. The text has this:
V. In order to compare the activity of the compounds of the invention with compounds having an analogous structure

The subject of another data set is cutaneous tissue. The following applies: in vivo; cited from earlier work.
Data set [2] relates to Saccharomyces cerevisiae. As to the kind of experiment: Induction of nuclear back mutations (his- to His+) in yeast. Conditions: vs 3-CPs or angelicin plus 365 nm light. The procedure:
A wild-type strain 211-1aM (29) of Saccharomyces cerivisiae was used, and the following mutants derived from it: S24-12c rad2-20 deficient in excision repair and S25-13b rad9-4 likely to be blocked in a recombinational repair pathway; a double mutant S 2057NL-24 rad2-20 -rad9-4 clone B was obtained by tetrad analysis of a heterozygote [formula]
The media and culture conditions used were as described in D. Averbeck, E. Moustacchi, (1975) Biochim. Biophys. Acta, 395, 393-404.
10^6 cells/ml in saline (0.9% NaCl) were treated for 30 minutes with the drugs at a final concentration of 10 μg/ml and 1.2% ethanol present.
A Philips HPW 125 culot Edison high pressure mercury lamp was used with maximal output at the wavelength 365 nm. The irradiation dose measured by actinometry was 10 J/m^2 per sec., using the following set up: 10 ml of actinometer solution (or the cell suspension, usually 1×10^6 cells/ml), stirred continuously by a magnetic stirrer, were irradiated at room temperature in an open Petri dish of 10 cm diameter at a distance of 10 cm from the center of the light bulb which was mounted horizontally. A 2 mm thick pyrex glass sheet (20×25 cm) was placed in the center of the light beam to cut out UV light of wavelength below 340 nm. […]

Data set [3] relates to Saccharomyces cerevisiae. As to the kind of experiment: Repair of photoinduced lesions in yeast (repair mutants, agar holding). The data set is classed as cell-based. The following applies: wild-type cells. The source says: Biophys. Acta, 395, 393-404.
Consequently, it appears that the excision repair pathway in wild type and rad9-4 cells is essential in AHR for both compounds.

The subject of data set [4] is skin of homozygote albino mice strain XVII nc/Z. As to the kind of experiment: Chronic topical application on the ears of mice plus 365 nm UV irradiation (tumors, skin reactions). The data set is classed as in vivo. The method, then:
The experiments were effected on groups of 40 mice, male and female.
After 115 topical applications of psoralen, followed each time by 10 minutes of irradiation (cumulative doses of 2.07×10^6 J/m^2), 100% of the animals developed a tumor; 50% having tumors on two ears.
3-CPs was also tested intraperitoneally (36 injections of 0.4 mg each over a period of 7 weeks).
In all these experiments the U.V. lamp was of the type of HPW 125 W, manufactured by Philips.

The test system of the next data set is DNA. The following applies: cited from earlier work.
[5] abbreviates: 115 topical applications, cumulative doses 2.07×10^6 J/m^2.

We go through ten compounds from patent US4260630A, “Skin diseases” (priority 1977, dated 1981).

With `CC(C)(C)OC(=O)c1cc2cc3ccoc3cc2oc1=O` [psoralen 3-t-butylcarboxylate], in data set [1], the outcome was inactive.
As for `CCCCc1c(C)c2cc3cc(C)oc3c(C)c2oc1=O` [3-n-butyl-4,5',8-trimethylpsoralen], the photosensitizing activity result with cutaneous tissue is “inactive or to induce very weak photosensitivity”.
As to `Cc1cc2cc3cc(C)c(=O)oc3c(C)c2o1` [3,5',8-trimethylpsoralen], the photosensitizing activity entry with cutaneous tissue is “inactive or to induce very weak photosensitivity”.
Regarding `O=c1ccc2cc3ccoc3cc2o1` [psoralen], the “effectiveness in inducing nuclear back mutations (his- to His+) relative to monofunctional furocoumarins or 254 nm UV alone” value in the data set on Saccharomyces cerevisiae [2] is reported as “at least 10 fold”. The “kinetics of agar holding recovery (AHR)” value with Saccharomyces cerevisiae [3] is recorded as “same kinetics of AHR”. Also, the “animals developing a tumor on ears” value is 3% in data set [4] (24 applications, cumulative dose 4.5×10^5 J/m^2) and 100% in data set [4] (setting [5]). The “animals having tumors on two ears” value in data set [4] (setting [5]) amounted to 50%. In addition, in data set [4] (chronic topical, two ears, 365 nm UV), the cutaneous reactions result is on record as “significant cutaneous reactions, such as an erythema, followed by intensive chronic inflammation even followed by necrosis”. Further, in data set [4] (mouse, in vivo), the “dose dependence of tumor development on ears” value is reported as “dose dependent”. Also, in the data set with cutaneous tissue, the photosensitizing activity entry is given as “most effective photo-sensitizers”.
Take `Cc1cc2cc3c4c(c(=O)oc3c(C)c2o1)CCCC4` [3,4-cyclohexeno-5',8-dimethylpsoralen]: the photosensitizing activity entry in the data set with cutaneous tissue is “inactive or to induce very weak photosensitivity”.
Regarding `Cc1cc2cc3c(C)c(C)c(=O)oc3c(C)c2o1` [3,4,5',8-tetramethylpsoralen], the photosensitizing activity entry with cutaneous tissue is “inactive or to induce very weak photosensitivity”.
As to `O=c1ccc2ccc3occc3c2o1` [angelicin], in the data set with Saccharomyces cerevisiae [3], the “kinetics of agar holding recovery (AHR)” value is “same kinetics of AHR”. In addition, the “binding to DNA and RNA” value in the data set on DNA is “bind equally well to DNA and RNA”.
Turning to `Cc1cc2cc3c(C)cc(=O)oc3c(C)c2o1` [4,5',8-trimethylpsoralen], the “reactivity with DNA in vitro relative to 8-MOP” value in the data set with DNA (in vitro) is recorded as “about 12 times more reactive”.
As for `Cc1cc2cc3ccoc3cc2oc1=O` [3-methylpsoralen], in the data set with cutaneous tissue, the photosensitizing activity entry was “inactive or to induce very weak photosensitivity”.
Regarding 3,4-dibenzo-5,8-dimethylpsoralen, in the data set with cutaneous tissue, the photosensitizing activity result is “inactive or to induce very weak photosensitivity”.
